According to patent US20240279218A1 (Hoffmann-La Roche Inc., priority 2016, published 2024):

Tests used:
h-GABA-A α5β3γ2 [1] = molecular target: T1, h-GABA-A α5β3γ2 (Homo sapiens (Human), UniProt P18507+P31644); assay: [3H]flumazenil competition binding assay, membranes of HEK293 cells expressing human GABAA receptors; conditions: displacement of [3H]flumazenil 0.5 nM, HEK293 cells expressing human receptors, mean of two determinations; read-out: Ki h-GABA-A α5β3γ2
In short: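 Membranes were prepared from HEK293 cells with transient human α5β3γ2 expression and assayed in Krebs-tris, pH 7.5. Bound radioactivity measured on filters by liquid scintillation.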

h-GABA-A α5β3γ2 [2] = molecular target: T1, h-GABA-A α5β3γ2; assay: Two-electrode voltage clamp electrophysiology in Xenopus oocytes expressing GABAA receptors, modulation of GABA EC20 current; assay type: cell-based; conditions: Xenopus oocytes; for Efficacy (GABA) %: % modulation of GABA EC20 = 100*(Fold increase−1); for Fold increase h-GABA-A α5β3γ2 oocyte: GABA EC20, test compound at approx. 30 fold its Ki
In short: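 Values are % modulation of an EC20 GABA response, derived point by point from the ratio of compound-exposed versus control current traces (extremum taken, 100×(fold−1)). Recordings used oocytes injected with human α5, β3, γ2 mRNA, clamped at −80 mV at room temperature, at least 3 oocytes each.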

Row | SMILES | Ki (h-GABA-A α5β3γ2 [1]) [nM] | Efficacy (GABA) % (h-GABA-A α5β3γ2 [2]) [%] | Fold increase h-GABA-A α5β3γ2 oocyte (h-GABA-A α5β3γ2 [2])
1 | Cc1ccc(-c2noc(C)c2COc2cnc(C(=O)NC3CC3)cn2)cn1 [Example 74, N-cyclopropyl-5-((5-methyl-3-(6-methyl-3-pyridyl)isoxazol-4-yl)methoxy)pyrazine-2-carboxamide] | 9.2 | 28 | 1.28
2 | Cc1ccc(-c2noc(C)c2COc2ccc(C(=O)NC3(C)CC3)nn2)cn1 [Example 76, 6-((5-methyl-3-(6-methylpyridin-3-yl)isoxazol-4-yl)methoxy)-N-(1-methylcyclopropyl)pyridazine-3-carboxamide] | 9 | 92 | 1.92
3 | Cc1ccc(-c2noc(C)c2COc2cnc(C(=O)NC3COC3)cn2)cn1 [Example 77, 5-((5-methyl-3-(6-methyl-3-pyridyl)isoxazol-4-yl)methoxy)-N-(oxetan-3-yl)pyrazine-2-carboxamide] | 5.2 | 11 | 1.11
4 | Cc1ccc(-c2noc(C)c2COc2cnc(C(=O)NCC(F)(F)F)cn2)cn1 [Example 78, 5-((5-methyl-3-(6-methyl-3-pyridyl)isoxazol-4-yl)methoxy)-N-(2,2,2-trifluoroethyl)pyrazine-2-carboxamide] | 24.3 | 42 | 1.42
5 | Cc1ccc(-c2noc(C)c2COc2ccc(C(=O)NC(C)(C)CCO)nn2)cn1 [Example 79, N-(4-hydroxy-2-methylbutan-2-yl)-6-((5-methyl-3-(6-methylpyridin-3-yl)isoxazol-4-yl)methoxy)pyridazine-3-carboxamide] | 11.3 | 96 | 1.96
6 | Cc1ccc(-c2noc(C)c2COc2ccc(C(=O)NC3(C)COC3)nn2)cn1 [Example 83, 6-((5-methyl-3-(6-methylpyridin-3-yl)isoxazol-4-yl)methoxy)-N-(3-methyloxetan-3-yl)pyridazine-3-carboxamide] | 5 | 96 | 1.96
7 | Cc1ccc(-c2noc(C)c2COc2ccc(C(=O)N3CC(C#N)C3)nn2)cn1 [Example 84, 1-(6-((5-methyl-3-(6-methylpyridin-3-yl)isoxazol-4-yl)methoxy)pyridazine-3-carbonyl)azetidine-3-carbonitrile] | 19 | 54 | 1.54
8 | Cc1ccc(-c2noc(C)c2COc2cnc(C(=O)NC3CCC(F)(F)CC3)cn2)cn1 [Example 86, N-(4,4-difluorocyclohexyl)-5-((5-methyl-3-(6-methyl-3-pyridyl)isoxazol-4-yl)methoxy)pyrazine-2-carboxamide] | 17 | 120 | 2.2
9 | Cc1ccc(-c2noc(C)c2COc2ccc(C(=O)N[C@H]3CCOC3)nn2)cn1 [Example 87, (S)-6-((5-methyl-3-(6-methylpyridin-3-yl)isoxazol-4-yl)methoxy)-N-(tetrahydrofuran-3-yl)pyridazine-3-carboxamide] | 8.1 | 80 | 1.8
10 | CC[C@@H](CC#N)NC(=O)c1ccc(OCc2c(-c3ccc(C)nc3)noc2C)nn1 [Example 88, (S)—N-(1-cyanobutan-2-yl)-6-((5-methyl-3-(6-methylpyridin-3-yl)isoxazol-4-yl)methoxy)pyridazine-3-carboxamide] | 40.9 | 68 | 1.68
11 | Cc1ccc(-c2noc(C)c2COc2cnc(C(=O)N[C@@H]3CCOC3)cn2)cn1 [Example 89, (R)-5-((5-Methyl-3-(6-methylpyridin-3-yl)isoxazol-4-yl)methoxy)-N-(tetrahydrofuran-3-yl)pyrazine-2-carboxamide] | 13.1 | 31 | 1.31
12 | Cc1ccc(-c2noc(C)c2COc2cnc(C(=O)NCCO)cn2)cn1 [Example 90, N-(2-Hydroxyethyl)-5-((5-methyl-3-(6-methylpyridin-3-yl)isoxazol-4-yl)methoxy)pyrazine-2-carboxamide] | 16.7 | 37 | 1.37
13 | Cc1ccc(-c2noc(C)c2COc2cc3c(cn2)C(=O)N(C2CCS(=O)(=O)CC2)C3)cn1 [Example 91, 2-(1,1-dioxothian-4-yl)-6-((5-methyl-3-(6-methylpyridin-3-yl)-1,2-oxazol-4-yl)methoxy)-1H-pyrrolo[3,4-c]pyridin-3-one] | 5.5 | 140 | 2.4
14 | Cc1ccc(-c2noc(C)c2COc2cnc(C(=O)NC3CCS(=O)(=O)C3)cn2)cn1 (stereo not drawn) [Example 94, N-(1,1-dioxothiolan-3-yl)-5-((5-methyl-3-(6-methylpyridin-3-yl)-1,2-oxazol-4-yl)methoxy)pyrazine-2-carboxamide] | 10 | 92 | 1.92
15 | Cc1ccc(-c2noc(C)c2COc2cnc(C(=O)NCC3CC3)cn2)cn1 [Example 95, N-(cyclopropylmethyl)-5-((5-methyl-3-(6-methylpyridin-3-yl)isoxazol-4-yl)methoxy)pyrazine-2-carboxamide] | 13.4 | 67 | 1.67
16 | Cc1ccc(-c2noc(C)c2COc2cc3c(cn2)C(=O)N(C2CCC(F)(F)CC2)C3)cn1 [Example 96, 2-(4,4-difluorocyclohexyl)-6-((5-methyl-3-(6-methylpyridin-3-yl)isoxazol-4-yl)methoxy)-1H-pyrrolo[3,4-c]pyridin-3(2H)-one] | 7.2 | 88 | 1.88
17 | Cc1ccc(-c2noc(C)c2COc2ccc(C(=O)NC3(C)CCOCC3)nn2)cn1 [Example 97, 6-((5-methyl-3-(6-methylpyridin-3-yl)isoxazol-4-yl)methoxy)-N-(4-methyltetrahydropyran-4-yl)pyridazine-3-carboxamide] | 13.6 | 71 | 1.71
18 | Cc1ccc(-c2noc(C)c2COc2cnc(C(=O)N[C@@H]3CCCOC3)cn2)cn1 [Example 98, (R)-5-((5-methyl-3-(6-methylpyridin-3-yl)isoxazol-4-yl)methoxy)-N-(tetrahydropyran-3-yl)pyrazine-2-carboxamide] | 62.2 | 76 | 1.76
19 | Cc1ccc(-c2noc(C)c2COc2ccc(C(=O)N[C@@H]3CCCOC3)nn2)cn1 [Example 99, (R)-6-((5-methyl-3-(6-methylpyridin-3-yl)isoxazol-4-yl)methoxy)-N-(tetrahydropyran-3-yl)pyridazine-3-carboxamide] | 6.8 | 73 | 1.73
20 | Cc1ccc(-c2noc(C)c2COc2ccc(C(=O)NC3CC4(COC4)C3)nn2)cn1 [Example 100, 6-((5-methyl-3-(6-methylpyridin-3-yl)isoxazol-4-yl)methoxy)-N-(2-oxaspiro[3.3]heptan-6-yl)pyridazine-3-carboxamide] | 8.5 | 70 | 1.7
